Common to all, as to format: cell-based
Assay [1] has as its system Wolbachia pipientis in C6/36 cell line. In words: Anti-Wolbachia high-content assay. To be noted: read-out: EC50 Wolbachia pipientis in C6/36 cell line. As to the method:
After 15 minutes, all media was removed from each well and fresh media (no stain) was added. Imaging of each well was accomplished using a Perkin Elmer Operetta high-content imaging system. Five fields per well were imaged using a confocal 60× objective with the Fluorescein filter (excitation filter: 460-490 nm; emission filter: 500-550 nm). Images were analyzed using the Perkin Elmer Harmony software to score each intact cell on the basis of texture complexity of the cytoplasm. Full details can be found in: […]. et al, J. Biomol.

In assay [2] the test system is Staphylococcus aureus, MRSA (ATCC 33591). Put plainly: Antibacterial MIC assay (microbroth dilution, CLSI). To be noted: read-out: MIC Staphylococcus aureus, MRSA (ATCC 33591). The method in brief: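 Microbroth dilution per CLSI M07-A10/M100-S25 in cation-adjusted Mueller-Hinton broth, with 3% lysed horse blood added for S. pneumoniae. Inoculum from a 0.5 McFarland direct colony suspension, diluted to 5×10^5 CFU/mL in the well. Compounds were 2-fold serially diluted; MIC read against a growth control.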

For assay [3], the system named is Streptococcus pneumoniae (ATCC 49619). Described as above. The method in brief:
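CLSI broth microdilution: 2-fold compound dilutions in cation-adjusted Mueller-Hinton broth supplemented with 3% lysed horse blood for S. pneumoniae, inoculum 5×10^5 CFU/mL from a 0.5 McFarland direct colony suspension, with growth control.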

Setting [4] is: C6/36 (wAlbB) cells, 7 days at 26° C., 50% reduction of Wolbachia.
Setting [5] is: microbroth dilution, cation-adjusted Mueller-Hinton broth, 35° C. for 16-20 hours.
The mark [6] stands for this setting: ATCC49619, microbroth dilution, 3% lysed horse blood, 35° C. for 16-20 hours, read-out: MIC Streptococcus pneumoniae (ATCC 49619).

The results in this text go back to patent US10919916B2, “Boron-containing small molecules” (Bill & Melinda Gates Foundation, priority 2016, dated 2021).

pEC50: −log10 of the molar value. In brackets after ≈: the same amount, converted by molar mass. Like-named read-outs stand apart in the source and are kept apart here.

Usually MIC stands for the lowest concentration that inhibits growth of the organism.

Consider `C=C[C@]1(C)C[C@@H](OC(=O)COc2ccc3c(c2)B(O)OC3CC(=O)OC(C)(C)C)[C@]2(C)[C@H](C)CC[C@]3(CCC(=O)[C@H]32)[C@@H](C)[C@@H]1O` (stereo partly drawn) [Compound 24, tert-Butyl 2-(1-hydroxy-6-(2-(((3aR,4R,5R,7S,8S,9R,9aS,12R)-8-hydroxy-4,7,9,12-tetramethyl-3-oxo-7-vinyldecahydro-4,9a-propanocyclopenta[8]annulen-5-yl)oxy)-2-oxoethoxy)-1,3-dihydrobenzo[c][1,2]oxaborol-3-yl)acetate], for which, in assay [1] (setting [4]), the pEC50 was below 6.00. The MIC was below 0.25 µg/mL in assay [2] (setting [5]) and 0.5 to 2 µg/mL (≈ 0.801 to 3.2 µM) in assay [3] (setting [6]).

On to `C=C[C@]1(C)C[C@@H](OC(=O)COc2ccc3c(c2)B(O)NN=C3)[C@]2(C)[C@H](C)CC[C@]3(C[C@H](F)C(=O)[C@H]32)[C@@H](C)[C@@H]1O` [Compound 74, (2S,3aR,4R,5R,7S,8S,9R,9aS,12R)-2-fluoro-8-hydroxy-4,7,9,12-tetramethyl-3-oxo-7-vinyldecahydro-4,9a-propanocyclopenta[8]annulen-5-yl 2-((1-hydroxy-1,2-dihydrobenzo[d][1,2,3]diazaborinin-7-yl)oxy)acetate], for which the pEC50 in assay [1] (setting [4]) is 8.40. Moreover, the MIC in assay [2] (setting [5]) and in assay [3] (setting [6]) was below 0.25 µg/mL in each case.

Regarding `C=C[C@]1(C)C[C@@H](OC(=O)COc2cc(CNC(=O)OC(C)(C)C)c3c(c2Cl)B(O)OC3)[C@]2(C)[C@H](C)CC[C@]3(CCC(=O)[C@H]32)[C@@H](C)[C@@H]1O` [Compound 7, (3aR,4R,5R,7S,8S,9R,9aS,12R)-8-hydroxy-4,7,9,12-tetramethyl-3-oxo-7-vinyldecahydro-4,9a-propanocyclopenta[8]annulen-5-yl 2-((4-(((tert-butoxycarbonyl)amino)methyl)-7-chloro-1-hydroxy-1,3-dihydrobenzo[c][1,2]oxaborol-6-yl)oxy)acetate], in assay [1] (C6/36, […]), the pEC50 was 6.37. Besides, the MIC in assay [2] lay within 0.5 to 2 µg/mL (≈ 0.742 to 2.97 µM); in assay [3] (ATCC49619, read-out: MIC Streptococcus pneumoniae (ATCC 49619)) it was 4 to 32 µg/mL (≈ 5.93 to 47.5 µM).

As for `C=C[C@]1(C)C[C@@H](OC(=O)COc2cc3c(cc2F)COB3O)[C@]2(C)[C@H](C)CC[C@]3(C[C@H](O)C(=O)[C@H]32)[C@@H](C)[C@@H]1O` [Compound 37, (2S,3aR,4R,5R,7S,8S,9R,9aS,12R)-2,8-dihydroxy-4,7,9,12-tetramethyl-3-oxo-7-vinyldecahydro-4,9a-propanocyclopenta[8]annulen-5-yl 2-((5-fluoro-1-hydroxy-1,3-dihydrobenzo[c][1,2]oxaborol-6-yl)oxy)acetate], the pEC50 in assay [1] (setting [4]) is 7.28. In addition, the MIC is below 0.25 µg/mL in assay [2] (setting [5]) and 0.5 to 2 µg/mL (≈ 0.918 to 3.67 µM) in assay [3] (setting [6]).

`C=C[C@]1(C)C[C@@H](OC(=O)COc2ccc3c(c2)B(O)N(S(C)(=O)=O)N=C3)[C@]2(C)[C@H](C)CC[C@]3(C[C@H](O)C(=O)[C@H]32)[C@@H](C)[C@@H]1O` [Compound 78, (2S,3aR,4R,5R,7S,8S,9R,9aS,12R)-2,8-dihydroxy-4,7,9,12-tetramethyl-3-oxo-7-vinyldecahydro-4,9a-propanocyclopenta[8]annulen-5-yl 2-((1-hydroxy-2-(methylsulfonyl)-1,2-dihydrobenzo[d][1,2,3]diazaborinin-7-yl)oxy)acetate]: the pEC50 in assay [1] (setting [4]) was 7.89. For the same compound, the minimal inhibitory concentration (MIC) in assay [2] (setting [5]) and in assay [3] (setting [6]) was 0.5 to 2 µg/mL (≈ 0.811 to 3.24 µM) throughout.

`C=C[C@]1(C)C[C@@H](OC(=O)NC(=O)c2ccc3c(c2)B(O)OC3)[C@]2(C)[C@H](C)CC[C@]3(CCC(=O)[C@H]32)[C@@H](C)[C@@H]1O` [Compound 58, (3aR,4R,5R,7S,8S,9R,9aS,12R)-8-hydroxy-4,7,9,12-tetramethyl-3-oxo-7-vinyldecahydro-4,9a-propanocyclopenta[8]annulen-5-yl (1-hydroxy-1,3-dihydrobenzo[c][1,2]oxaborole-6-carbonyl)carbamate]: the pEC50 in assay [1] (setting [4]) was 7.25. Also, the MIC was below 0.25 µg/mL in assay [2] (setting [5]) and 0.5 to 2 µg/mL (≈ 0.955 to 3.82 µM) in assay [3] (setting [6]).
